The source of these data is PMC9721424, “Novel N-methylsulfonyl-indole derivatives: biological activity and COX-2/5-LOX inhibitory effect with improved gastro protective profile and reduced cardio vascular risks” (Journal of Enzyme Inhibition and Medicinal Chemistry, 2022).

Like-named read-outs stand apart in the source and are kept apart here.

In one series the target is T1, ovine COX-1 (Ovis aries, UniProt P05979).
T1 sequence (P05979 25-600): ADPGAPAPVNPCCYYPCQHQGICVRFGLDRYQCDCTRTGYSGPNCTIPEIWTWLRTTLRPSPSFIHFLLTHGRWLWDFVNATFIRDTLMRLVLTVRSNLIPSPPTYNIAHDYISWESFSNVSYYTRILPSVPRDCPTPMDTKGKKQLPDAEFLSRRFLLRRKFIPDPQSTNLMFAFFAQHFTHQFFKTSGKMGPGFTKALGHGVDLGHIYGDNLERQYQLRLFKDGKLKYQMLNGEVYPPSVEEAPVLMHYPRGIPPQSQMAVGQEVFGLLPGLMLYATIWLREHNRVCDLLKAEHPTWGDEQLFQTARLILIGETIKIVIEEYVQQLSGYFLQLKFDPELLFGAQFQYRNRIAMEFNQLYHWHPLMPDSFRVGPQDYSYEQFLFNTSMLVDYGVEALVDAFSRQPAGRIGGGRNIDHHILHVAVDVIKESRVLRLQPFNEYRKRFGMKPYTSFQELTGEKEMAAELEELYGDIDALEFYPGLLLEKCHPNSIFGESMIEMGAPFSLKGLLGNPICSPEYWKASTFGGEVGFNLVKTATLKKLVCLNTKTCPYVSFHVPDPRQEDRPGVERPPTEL
Briefly: COX-1 inhibition, enzyme immune assay (EIA) kit.

A further series addresses T2, COX-2 (Ovis aries, UniProt P79208).
T2 sequence (P79208 17-603): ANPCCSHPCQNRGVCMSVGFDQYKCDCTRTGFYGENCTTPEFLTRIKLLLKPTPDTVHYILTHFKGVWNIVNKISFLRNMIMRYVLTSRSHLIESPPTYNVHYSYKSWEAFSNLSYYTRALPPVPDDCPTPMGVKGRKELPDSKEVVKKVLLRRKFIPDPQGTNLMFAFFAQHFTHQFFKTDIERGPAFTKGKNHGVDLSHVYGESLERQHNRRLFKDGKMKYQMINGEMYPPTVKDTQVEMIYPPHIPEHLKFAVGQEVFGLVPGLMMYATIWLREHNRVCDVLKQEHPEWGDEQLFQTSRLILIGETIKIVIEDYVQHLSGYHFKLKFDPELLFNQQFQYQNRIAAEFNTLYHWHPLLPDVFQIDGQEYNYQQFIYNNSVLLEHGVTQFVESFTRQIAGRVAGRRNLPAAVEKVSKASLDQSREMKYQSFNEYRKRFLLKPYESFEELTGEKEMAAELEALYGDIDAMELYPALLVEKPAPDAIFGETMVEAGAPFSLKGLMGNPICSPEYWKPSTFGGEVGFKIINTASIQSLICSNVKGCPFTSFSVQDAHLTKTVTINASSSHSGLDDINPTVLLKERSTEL
The experiment in a line: COX-2 inhibition, enzyme immune assay (EIA) kit. Format: biochemical, ovine. To be noted: for SI: lab report, COX1/COX2.

The next series is described as follows: DPPH free radical assay. Type of series: biochemical. Particulars: 540 nm, relative to Trolox. The procedure:
(§1) Preparation of samples was occurred at the following concentrations: Samples 3a, 4a, 5b, 5d and 5e at final concentrations of 0.5 mg/ml in methanol: DMSO 9:1 v/v. Samples 4b and 4d at final concentrations 0.025 mg/ml in methanol: DMSO 9:1 v/v, sample 5a at final concentrations 0.25 mg/ml in methanol: DMSO 9:1 v/v, Sample 4c, 5c and 4e at final concentrations 0.05 mg/ml in methanol: DMSO 9:1 v/v, sample 3b at final concentration 0.75 mg/ml methanol: DMSO 9:1 v/v. A stock solution of 100 µM concentration of Trolox, a standard used in this experiment, was prepared in methanol from which seven concentrations were prepared, including 50, 40, 30, 20, 15, 10 and 5 µM.
The DPPH (2,2-diphenyl-1-picryl-hydrazyl-hydrate) free radical assay was carried out according to the method of Boly et al. 2016[39]. Briefly, freshly prepared DPPH reagent (100 µl, 0.1% in methanol) was added to 100 µl of the sample on 96 well plates (n = 6). The reaction was incubated at room temp for 30 min in the dark. After completion of the incubation time, the reduction in DPPH colour intensity was measured at 540 nm. Data obtained was represented as means ± SD, according to the following equation, percentage inhibition = [(Average absorbance of blank – average absorbance of the test)/(Average absorbance of blank)] *100. The results were recorded using a microplate reader, FluoStar Omega.
Microsoft Excel® was used to analyse the obtained results. The IC50 values were calculated using Graph pad Prism 6® by converting the concentrations to their logarithmic value and selecting the non-linear inhibitor regression equation (log (inhibitor) vs. normalised response – variable slope equation). The methods used and the final test report (R-SO7320) were obtained from Nawah Scientific.
In general terms: Loss of DPPH colour is used to gauge radical scavenging.

Series [1] concerns Escherichia coli (E. coli) (ATCC 25922). Briefly: Disc diffusion antimicrobial screening, E. coli. Format: cell-based. Particulars: 100 µg/disc. The procedure:
(§2) All compounds were screened for their antimicrobial activity at the Microbiology and Immunology Department, Faculty of Pharmacy, Beni-Suef University. The antimicrobial activity screening was carried out using the disc diffusion method, as described earlier, with some adjustments.
(§3) For each indicator microbe, a solution of half McFarland turbidity was prepared in sterile saline, followed by surface streaking of the strains on Mueller-Hinton agar with a sterile cotton swab. Then, sterile filter paper discs (5 mm diameter) preloaded with 100 µg of each compound were applied to the surface of the pre-inoculated plates. Then, the plates were chilled at 4 °C for 100 min before being incubated overnight at the proper temperature for microbial growth. Finally, the diameter of the inhibition zones around each disc was measured to evaluate the antimicrobial activity of the compounds. Ciprofloxacin was used as a standard antibacterial agent at a concentration of 20 µg/disc. Furthermore, DMSO-loaded discs were used as a negative control.
(In general: In agar diffusion tests the substance spreads into inoculated agar from a disc or well.)

Series [2] deals with Salmonella enterica (ATCC 14028). Briefly: Disc diffusion antimicrobial screening, Salmonella enterica. Format: cell-based. To be noted: 100 µg/disc. The procedure:
as §2, §3

The target in another series is T3, 5-LOX enzyme (Homo sapiens, UniProt P09917).
T3 construct: purchased Cayman Chemical K980-100
T3 sequence (P09917 1-674): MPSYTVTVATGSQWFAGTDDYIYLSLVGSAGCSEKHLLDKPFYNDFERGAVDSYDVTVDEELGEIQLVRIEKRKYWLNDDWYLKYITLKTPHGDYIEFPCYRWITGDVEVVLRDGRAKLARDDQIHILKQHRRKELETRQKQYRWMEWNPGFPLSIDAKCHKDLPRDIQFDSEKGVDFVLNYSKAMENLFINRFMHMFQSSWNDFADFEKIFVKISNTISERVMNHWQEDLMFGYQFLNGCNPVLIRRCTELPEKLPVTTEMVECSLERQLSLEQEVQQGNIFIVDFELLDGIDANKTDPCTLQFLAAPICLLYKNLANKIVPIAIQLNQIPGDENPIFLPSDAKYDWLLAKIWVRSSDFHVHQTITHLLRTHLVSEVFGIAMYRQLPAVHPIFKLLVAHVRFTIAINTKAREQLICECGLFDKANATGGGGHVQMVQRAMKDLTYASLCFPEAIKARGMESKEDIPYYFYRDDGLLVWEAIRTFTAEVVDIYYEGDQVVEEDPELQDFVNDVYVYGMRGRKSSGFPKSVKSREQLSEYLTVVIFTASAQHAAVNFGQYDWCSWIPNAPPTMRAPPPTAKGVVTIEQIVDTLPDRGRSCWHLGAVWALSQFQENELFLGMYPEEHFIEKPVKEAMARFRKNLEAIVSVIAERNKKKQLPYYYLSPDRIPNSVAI
Briefly: 5-LOX inhibition, Human Lipoxygenase Inhibitor Screening Assay (EIA) kit. Type of series: biochemical. On the procedure: The ability of the test compounds to inhibit the 5-LOX enzyme (IC50 value, μM) was detected using the Cayman Human Lipoxygenase Inhibitor Screening Assay (EIA) kit (catalog no. K980-100, Cayman Chemical). The IC50 values of test compounds were measured in µM according to the manufacturer’s instructions and reported method.

Series [3] is described as follows: Dissolution of DPPH samples in DMSO/methanol. Type of series: physicochemical. Particulars: DPPH sample preparation, methanol: DMSO 9:1 v/v. The procedure: as §1
Series [4] relates to TNF-α in RAW264.7 macrophage cells. The experiment in a line: In vitro measurement of TNF-α in RAW264.7 macrophage cells (RT-qPCR). Type of series: cell-based. From the text: Both Lipopolysaccharides (LPS) and hispidin were purchased from Sigma (Sigma-Aldrich, St. Louis, MO, USA)[40]. The foetal bovine serum (FBS) and Dulbecco’s modified Eagle’s medium (DMEM) were purchased from Hyclone (General Electric Healthcare Life Sciences, Mississauga, Canada), penicillin streptomycin (P/S) was purchased from Solarbio (Solarbio life sciences, Beijing, P. R. China). Results of all in vitro anti-inflammatory screening were obtained from the confirmatory diagnostic unit, VACSERA, Egypt.
DMEM was used to cultivate the macrophage cells RAW264.7 (Shanghai BOGO Industrial Co., Ltd., Shanghai, China), and supplemented with 10% FBS and 1% P/S (100 U/ml and […], respectively). […] They were treated with various concentrations of hispidin, then with 1 μg/ml LPS for the indicated time.
PBS (1 ml/well) was used to wash the cells in 24-well plates. […] For the experiments, CL Buffer included MgCl2 (M1028; Sigma) or RNasin Plus RNase Inhibitor (N2615; Promega). Before use, both Bio-Rad SPR and CL buffer were equilibrated to room temperature. […] Carefully, the resulting lysates were collected and either analysed immediately or stored frozen ([…]).
RT-qPCR analysis was performed in one-step SYBR Green RT-qPCR. […] A CFX96 real-time PCR instrument (Bio-Rad) was used under the following protocol: 50uC for 10 min, 95uC for 5 min, 95uC for 10 s/61uC for 15 s/72uC for 30 s.
Total RNA purified from cells was used as an RT-qPCR quantification standard.
(In general: Real-time PCR tracks product formation cycle by cycle.)

Text for ovine COX-1: Colorimetric enzyme immunoassay (EIA) kits were done to screen for the isozyme-specific inhibition.

Usually IC50 stands for the concentration at which inhibition is half-maximal. Broadly, the melting point is the temperature, or range, at which the solid turns liquid. For `CCNC(=S)N/N=C/c1cn(S(C)(=O)=O)c2ccccc12` [Compound 4b, (E)-N-Ethyl-2{[1-(methylsulfonyl)-1H-indol-3yl]methylene}-hydrazinecarbothioamide], the melting point is 240 to 242 °C. Moreover, the IC50 against ovine COX-1 (IC50 COX-1) is 28.5 ± 0.8 µM. On ovine COX-1 (conc 0.1 (μM)), the COX1 %inh came out at 3.74%. This molecule yielded a COX1 %inh on ovine COX-1 (conc 1 (μM)) of 8.96%. The COX1 %inh on ovine COX-1 (conc 10 (μM)) was found to be 27.4%. For the same molecule, the COX1 %inh at ovine COX-1 (conc 100 (μM)) came out at 73.3%. The molecule further had an SI on COX-2 of 0.236. In addition, the “DPPH test results (µM trolox equivalent/ 1mg sample ± SD)” value in the series “DPPH free radical assay” (30 min) was 426.65 ± 28.02 µM trolox equivalent/ 1mg sample. Besides, in the series “DPPH free radical assay” (values in text), the DPPH anti-oxidant activity was found to be 426.65 µM Trolox equivalent/mg. For the same molecule, in [1], the “antibacterial activity against E. coli” value is given as “selective antibacterial activity”. Further, in [2], the “antibacterial activity against Salmonella enterica” value is recorded as “selective antibacterial activity”. The molecule also yielded an IC50 against 5-LOX enzyme of 29.2 ± 1.54 µM. The molecule further yielded a 5-LOX %inh on 5-LOX enzyme (conc 0.1 (μM)) of 4.17%. This molecule also showed a 5-LOX %inh on 5-LOX enzyme (conc 1 (μM)) of 11.6%. This molecule also came in with a 5-LOX %inh on 5-LOX enzyme (conc 10 (μM)) of 30.5%. The 5-LOX %inh at 5-LOX enzyme (conc 100 (μM)) is recorded as 70.1%.

As for `CCN1CC(=O)S/C1=N\N=C\c1cn(S(C)(=O)=O)c2ccccc12` [Compound 5b], the melting point lay within 230 to 232 °C. In addition, the COX1 %inh at ovine COX-1 (conc 0.1 (μM)) is recorded as 7.23%. This molecule also returned a COX1 %inh at ovine COX-1 (conc 1 (μM)) of 15.2%. The molecule also came in with a COX1 %inh on ovine COX-1 (conc 10 (μM)) of 31.1%. The same molecule yielded a COX1 %inh at ovine COX-1 (conc 100 (μM)) of 73.6%. Besides, the IC50 at ovine COX-1 (read-out: IC50 COX-1) came out at 22.2 ± 0.63 µM. In addition, in [3], the “solubility of sample in DMSO and methanol” value was “didn’t dissolve in DMSO nor in methanol”. Moreover, the “S.I (IC50 COX-1/IC50 COX-2)” value at COX-2 (COX-2 selectivity index) is 0.25. The same molecule yielded an SI at COX-2 of 0.249. For the same molecule, the TNF-α fold change in series [4] turned out to be 0.18. The same molecule returned an IC50 against 5-LOX enzyme of 47.8 ± 2.53 µM. Moreover, the 5-LOX %inh on 5-LOX enzyme (conc 0.1 (μM)) is listed as 1.82%. On 5-LOX enzyme (conc 1 (μM)), this molecule gave a 5-LOX %inh of 3.84%. This molecule also showed a 5-LOX %inh on 5-LOX enzyme (conc 10 (μM)) of 15.1%. Also, the 5-LOX %inh on 5-LOX enzyme (conc 100 (μM)) is given as 73.1%.
